1 compound from ChEMBL document CHEMBL5230110, “FabI (enoyl acyl carrier protein reductase) - A potential broad spectrum therapeutic target and its inhibitors” (Eur J Med Chem, 2020) can be followed below.

The experiment addresses Enoyl-[acyl-carrier-protein] reductase [NADH] (Mycobacterium tuberculosis, UniProt P9WGR1, S94A).

For `Oc1cc2ccc1Oc1ccc(cc1)CCc1ccc(c(O)c1)Oc1ccc(cc1)CC2`, half-maximal inhibition (IC50) required 4.7 µM.
